We go through 19 compounds from PubChem BioAssay AID330 (DTP/NCI, 2004).

Structures are written as SMILES. “And” between values parts separate entries of the source, which are not always exact repeats. Equal values may be shown once. Toxic doses and inconclusive results are not listed.

This test concerns P388 leukemia ip, CD2F1 mice, survival T/C. In words: NCI In Vivo Anticancer Drug Screen. Data for tumor model P388 Leukemia (intraperitoneal) in CD2F1 (CDF1) mice. The settings on record: endpoint: median survival time, higher = longer survival. A digest of the protocol:
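Mice carrying the transplanted tumor received test compound or vehicle. Survival was recorded in each group, and the value is the treated-group measurement divided by that of the vehicle-treated control group.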

Setting [1] is: dose: 60.0 mg/kg/injection, schedule: Q01DX005 (ip), vehicle: saline with Tween-80.
[2] abbreviates: dose: 120.0 mg/kg/injection, schedule: Q01DX005 (ip), vehicle: saline with Tween-80.
Setting [3] is: dose: 240.0 mg/kg/injection, schedule: Q01DX005 (ip), vehicle: saline with Tween-80.
Setting [4] is: dose: 50.0 mg/kg/injection, schedule: Q01DX009 (ip), vehicle: saline.
Where [5] appears, read: dose: 100.0 mg/kg/injection, schedule: Q01DX009 (ip), vehicle: saline.
Setting [6] is: dose: 50.0 mg/kg/injection, schedule: Q01DX009 (ip), vehicle: saline with Tween-80.
Setting [7] is: dose: 100.0 mg/kg/injection, schedule: Q01DX009 (ip), vehicle: saline with Tween-80.
The mark [8] stands for this setting: dose: 200.0 mg/kg/injection, schedule: Q01DX009 (ip), vehicle: saline with Tween-80.
Setting [9] is: dose: 12.5 mg/kg/injection, schedule: Q01DX009 (ip), vehicle: saline.

On to `O=Cc1cccc(OC(=O)Oc2cccc(C=O)c2)c1`, for which the T/C was 101 % of control (dose: 100.0 mg/kg/injection, schedule: Q01DX001 (ip), vehicle: saline with Tween-80); 99 % of control (dose: 200.0 mg/kg/injection, schedule: Q01DX001 (ip), vehicle: saline with Tween-80); 104 % of control (dose: 400.0 mg/kg/injection, schedule: Q01DX001 (ip), vehicle: saline with Tween-80).
On to `O=c1[nH]c2cc(Cl)ccc2nc1/C=C(\O)c1ccc(F)cc1`, for which the T/C under setting [1] is 89 % of control, the T/C under setting [2] is 87 % of control and the T/C under setting [3] is 102 % of control.
On to `O=C(CO)N(CCO)CCO`, for which the T/C under setting [4] is 98 % of control; the T/C under setting [5] was 95 % of control; the T/C (dose: 200.0 mg/kg/injection, schedule: Q01DX009 (ip), vehicle: saline) was 96 % of control.
`O=C(c1ccc(-c2ccccc2)cc1)C1CC1c1ccccc1` (centres undefined): the T/C was 109 % of control (dose: 25.0 mg/kg/injection, schedule: Q01DX001 (ip), vehicle: saline sonified); 90 % of control (dose: 50.0 mg/kg/injection, schedule: Q01DX001 (ip), vehicle: saline sonified); 90 % of control (dose: 100.0 mg/kg/injection, schedule: Q01DX001 (ip), vehicle: saline sonified).
`CCNC(=O)NS(=O)(=O)c1ccc(Sc2ccc(C)cc2)nc1`: the T/C runs as follows: under setting [1], 98 % of control; under setting [2], 101 % of control; under setting [3], 94 % of control.
In the case of `COc1cc(OC)c(OC)cc1/C=C\c1nccc2ccccc12`, the T/C is 99 % of control under setting [6], 96 % of control under setting [7] and 96 % of control under setting [8].
On to `C[CH2][Sn]([Br])([CH2]C)[c]1ccccc1CN(C)C`, for which the T/C by setting is: under setting [9], 100 % of control and 114 % of control; (dose: 25.0 mg/kg/injection, schedule: Q01DX009 (ip), vehicle: saline) 100 % of control and 114 % of control; under setting [4], 117 % of control and 124 % of control.
For `Cc1cc(N=[N+]=[N-])c2cc(F)ccc2n1`, the T/C is 92 % of control (dose: 30.0 mg/kg/injection, schedule: Q01DX005 (ip), vehicle: saline with Tween-80); 90 % of control and 92 % of control under setting [1].
As to `CCN(CC)C(=Nc1ccc(Cl)c(Cl)c1)SC(NC=O)=C(Cl)Cl`, the T/C was 100 % of control (dose: 60.0 mg/kg/injection, schedule: Q01DX005 (ip), vehicle: Klucel (hydroxypropylcellulose) (HPC)); 104 % of control (dose: 120.0 mg/kg/injection, schedule: Q01DX005 (ip), vehicle: Klucel (hydroxypropylcellulose) (HPC)); 104 % of control (dose: 240.0 mg/kg/injection, schedule: Q01DX005 (ip), vehicle: Klucel (hydroxypropylcellulose) (HPC)).
Regarding `COCCCOC(=O)NCCCCC([NH-])C(=O)O.COCCCOC(=O)NCCCCC([NH-])C(=O)O.[Cu+2]` (centres undefined), the T/C runs as follows: (dose: 6.25 mg/kg/injection, schedule: Q01DX005 (ip), vehicle: Klucel (hydroxypropylcellulose) (HPC)) 100 % of control; (dose: 12.5 mg/kg/injection, schedule: Q01DX005 (ip), vehicle: Klucel (hydroxypropylcellulose) (HPC)) 87 % of control; (dose: 25.0 mg/kg/injection, schedule: Q01DX005 (ip), vehicle: Klucel (hydroxypropylcellulose) (HPC)) 89 % of control.
For the compound `Nc1c(Cl)[nH]cnc1=S`, the T/C was 106 % of control (dose: 100.0 mg/kg/injection, schedule: Q01DX009 (ip), vehicle: suspension in saline); 105 % of control (dose: 200.0 mg/kg/injection, schedule: Q01DX009 (ip), vehicle: suspension in saline); 99 % of control (dose: 400.0 mg/kg/injection, schedule: Q01DX009 (ip), vehicle: suspension in saline).
As for `CN1CCC(C(=O)NNc2ccccc2)CC1`, the T/C runs as follows: (dose: 50.0 mg/kg/injection, schedule: Q01DX005 (ip), vehicle: saline) 100 % of control; (dose: 100.0 mg/kg/injection, schedule: Q01DX005 (ip), vehicle: saline) 102 % of control; (dose: 200.0 mg/kg/injection, schedule: Q01DX005 (ip), vehicle: saline) 102 % of control.
In the case of `C1CN1P1(N2CC2)=NP(N2CC2)(N2CC2)=NP(N2CC2)(N2CC2)=N1`, the T/C was 231 % of control (dose: 5.0 mg/kg/injection, schedule: Q01DX009 (ip), vehicle: saline); 222 % of control (dose: 10.0 mg/kg/injection, schedule: Q01DX009 (ip), vehicle: saline); 122 % of control (dose: 20.0 mg/kg/injection, schedule: Q01DX009 (ip), vehicle: saline).
In the case of `CCOC(=O)CCC(NC(=O)c1ccc(NCCC(C)=O)cc1)C(=O)OCC` (centres undefined), the T/C runs as follows: under setting [6], 104 % of control; under setting [7], 105 % of control; under setting [8], 104 % of control; (dose: 400.0 mg/kg/injection, schedule: Q01DX009 (ip), vehicle: saline with Tween-80) 105 % of control.
In the case of `CCCNC(=S)NN1C2CSC1CS2`, the T/C runs as follows: under setting [4], 89 % of control; under setting [5], 99 % of control.
Turning to `O/N=C/c1c(-c2ccccc2)nc2sccn12`, the T/C runs as follows: (dose: 100.0 mg/kg/injection, schedule: Q01DX001 (ip), vehicle: Klucel (hydroxypropylcellulose) (HPC)) 94 % of control; (dose: 200.0 mg/kg/injection, schedule: Q01DX001 (ip), vehicle: Klucel (hydroxypropylcellulose) (HPC)) 86 % of control; (dose: 400.0 mg/kg/injection, schedule: Q01DX001 (ip), vehicle: Klucel (hydroxypropylcellulose) (HPC)) 94 % of control.
Turning to `C=C1C(=O)CCC1C#N` (centres undefined), the T/C (dose: 50.0 mg/kg/injection, schedule: Q04DX002 (ip), vehicle: suspension in saline) is 100 % of control; the T/C (dose: 100.0 mg/kg/injection, schedule: Q04DX002 (ip), vehicle: suspension in saline) is 100 % of control; the T/C (dose: 200.0 mg/kg/injection, schedule: Q04DX002 (ip), vehicle: suspension in saline) was 93 % of control.
With `CCCCCCCCCCCCCCCCCC[N+](C)(C)C` (tested in a mixture with another compound), the T/C reads like this: (dose: 1.5 mg/kg/injection, schedule: Q01DX009 (ip), vehicle: saline with Tween-80) 90 % of control; (dose: 3.0 mg/kg/injection, schedule: Q01DX009 (ip), vehicle: saline with Tween-80) 113 % of control; (dose: 6.25 mg/kg/injection, schedule: Q01DX009 (ip), vehicle: saline) 109 % of control; under setting [9], 113 % of control.
For `[Cl][Pt+2][Cl].[NH-]C1C(O)OC(CO)C(O)C1O.[NH-]C1C(O)OC(CO)C(O)C1O` (centres undefined), the T/C is 105 % of control (dose: 25.0 mg/kg/injection, schedule: Q04DX002 (ip), vehicle: saline); 105 % of control (dose: 50.0 mg/kg/injection, schedule: Q04DX002 (ip), vehicle: saline); 105 % of control (dose: 100.0 mg/kg/injection, schedule: Q04DX002 (ip), vehicle: saline); 112 % of control (dose: 200.0 mg/kg/injection, schedule: Q04DX002 (ip), vehicle: saline); 106 % of control (dose: 400.0 mg/kg/injection, schedule: Q04DX002 (ip), vehicle: saline).
